Data published in patent US20030171598A1, “Aminoacid-iodine complex” (priority 2001, published 2003).

System: vibrio splendidus
Conditions: Penaeus vannamei pond
Text: 600,000 of Penaeus vannamei were raised in a pond with 1.1M depth and 1.6 hectare. […] At the next night, the pond was sterilized using the product prepared according to Example 5 with the content of iodine of 0.01 ppm.

Question: Which results are given for `CSCC[C@H](N)C(=O)O.I` [Example 5, methionine iodine]?
Answer: killing vibrio splendidus (content of iodine 0.01 ppm): very effective; time after which glimmering in the pond has disappeared (sterilized at content of iodine of 0.01 ppm): 40 min
